Laboratory results reported in ChEMBL document CHEMBL5674850, “ASAP - Solubility” (2024).
≈ marks a conversion by molar mass, not a printed value.

Experiment: Kinetic solubility of compound by measuring concentration at pH 7.4 in saturated PBS buffer by UV LCMS/MS using calibration curves. The assay has been performed by Enamine biological services, Bienta Ltd.The protocol is publicly available: dx.doi.org/10.17504/protocols.io.j8nlk8y41l5r/v1
Format: physicochemical
Conditions: PBS buffer

solubility kinetic | SMILES
335 µM (≈ 105 µg/mL) | O=C(Nc1ccc2c(c1)CNC2)c1cc(Cl)cc2c1CCC2
152 µM (≈ 44.6 µg/mL) | O=C1Cc2c(cccc2C(=O)Nc2ccc3c(c2)CNC3)N1
≤ 2 µM | O=C(Nc1ccc2c(c1)CNC2)c1cc(Br)cc2[nH]c(-c3ccccc3)nc12
35 µM (≈ 14.8 µg/mL) | O=C(Nc1cc(Cl)cc(C(=O)Nc2ccc3c(c2)CNC3)c1)OCc1ccccc1
181 µM (≈ 58.6 µg/mL) | O=C(Nc1ccc2c(c1)CNC2)c1cc(Cl)cc2ccncc12
239 µM (≈ 83.3 µg/mL) | O=C(/C=C/c1ccccc1)C(=O)N1CCN(CCc2ccccc2)CC1
154 µM (≈ 70.8 µg/mL) | CC(C)NC(=O)[C@H](Nc1ccc2c(c1)CNC2)c1cc(Cl)cc2[nH]c(-c3ccccc3)nc12
50 µM (≈ 20.3 µg/mL) | NCc1cccc([C@@H]2C[C@H]2c2cc(Cl)cc(NC(=O)OCc3ccccc3)c2)c1
185 µM (≈ 59.6 µg/mL) | O=C(Nc1ccc2c(c1)CNC2)c1cc(F)cc(-c2cn[nH]c2)c1
126 µM (≈ 58.5 µg/mL) | O=C(Nc1cc(Cl)cc(C(=O)Nc2cccc(C3CCNCC3)c2)c1)OCc1ccccc1
344 µM (≈ 158 µg/mL) | N#C[C@H](Nc1cccc(-c2nn[nH]n2)c1)c1cc(Cl)cc(NC(=O)OCc2ccccc2)c1
178 µM (≈ 76.9 µg/mL) | CNC(=O)[C@H](Nc1ccc2c(c1)CNC2)c1cc(Cl)cc2[nH]c(-c3ccccc3)nc12
49 µM (≈ 23.3 µg/mL) | O=C(N[C@H]1[C@H]2CCCCC[C@H]2[C@H]1C(=O)Nc1cccc(C2CCNCC2)c1)OCc1ccccc1
17 µM (≈ 8.66 µg/mL) | NCc1cccc(NC(=O)C[C@@H](NC(=O)OCc2ccccc2)c2ccc(OCc3ccccc3)cc2)c1
23 µM (≈ 11.4 µg/mL) | NCc1cccc(NC(=O)[C@@H](NC(=O)OCc2ccccc2)c2ccc(OCc3ccccc3)cc2)c1
21 µM (≈ 12.4 µg/mL) | NCc1cccc(NC(=O)C[C@H](NC(=O)OCc2ccccc2)c2ccc(OCc3ccccc3)c(Br)c2)c1
360 µM (≈ 164 µg/mL) | O=C(O)COc1cccc(NC(=O)c2cc(Cl)cc(NC(=O)OCc3ccccc3)c2)c1
375 µM (≈ 109 µg/mL) | NCc1cccc(NC(=O)c2cc(Cl)cc(CN)c2)c1
332 µM (≈ 116 µg/mL) | NCc1cccc(NC(=O)c2cccn3cc(CN4CCCC4)nc23)c1
356 µM (≈ 150 µg/mL) | O=C(Nc1cc(Cl)cc(-c2ccc3[nH]c(C(=O)O)cc3c2)c1)OCc1ccccc1

solubility kinetic | SMILES
131 µM (≈ 57.1 µg/mL) | O=C(O)Cn1ncc2cc(-c3cc(Cl)cc(NC(=O)OCc4ccccc4)c3)ccc21
78 µM (≈ 39.7 µg/mL) | NCc1cccc(CNC(=O)[C@@H](NC(=O)OCc2ccccc2)c2ccc(OCc3ccccc3)cc2)c1
88 µM (≈ 37.3 µg/mL) | NCCc1ccc(NC(=O)c2cc(Cl)cc(NC(=O)OCc3ccccc3)c2)cc1
52 µM (≈ 23.4 µg/mL) | NCc1cc(C(=O)O)cc([C@@H]2C[C@H]2c2cc(Cl)cc(NC(=O)OCc3ccccc3)c2)c1
26 µM (≈ 10.7 µg/mL) | O=C(Nc1cc(Cl)cc(C(=O)Nc2n[nH]c3c2CNC3)c1)OCc1ccccc1
335 µM (≈ 130 µg/mL) | CNC(=O)[C@H](Nc1cc(CN)cc(C(=O)O)c1)c1cc(Cl)cc(C2CC2)c1
394 µM (≈ 170 µg/mL) | Cc1cc(OCc2ccccc2)ccc1NS(=O)(=O)c1ccc(Cl)cc1C(=O)O
65 µM (≈ 29.2 µg/mL) | O=C(Nc1cc(Cl)cc(C(=O)Nc2cccc(-c3nnn[nH]3)c2)c1)OCc1ccccc1
333 µM (≈ 164 µg/mL) | CNC(=O)[C@H](Nc1cc(Cl)cc(NC(=O)OCc2ccccc2)c1)c1cccc(-c2nn[nH]n2)c1
89 µM (≈ 36.5 µg/mL) | NCc1cccc(NC(=O)c2cc(Cl)cc(NC(=O)OCc3ccccc3)c2)c1
7 µM (≈ 2.6 µg/mL) | CCc1cc(C(=O)Nc2cccc(CN)c2)sc1-c1ccc(Cl)cc1
60 µM (≈ 30.3 µg/mL) | CC[C@@H](Cc1nnn[nH]1)c1ccc(NC(=O)c2cc(Cl)cc(NC(=O)OCc3ccccc3)c2)cc1
56 µM (≈ 27.8 µg/mL) | NCc1cccc(NC(=O)CN(C(=O)OCc2ccccc2)c2ccc(OCc3ccccc3)cc2)c1
14 µM (≈ 6.94 µg/mL) | NCc1cccc(NC(=O)c2cc(OCc3ccccc3)ccc2CNC(=O)OCc2ccccc2)c1
8 µM (≈ 3.88 µg/mL) | Cc1cc(-c2ccc([C@@H](NC(=O)OCc3ccccc3)C(=O)Nc3cccc(CN)c3)cc2)cs1
332 µM (≈ 158 µg/mL) | C=CC[C@H](Nc1cccc(-c2nn[nH]n2)c1)c1cc(Cl)cc(NC(=O)OCc2ccccc2)c1
316 µM (≈ 97.4 µg/mL) | CC(C)c1nc2c(C(=O)Nc3cccc(CN)c3)cccc2[nH]1
352 µM (≈ 145 µg/mL) | CNC(=O)[C@H](Nc1cc(CN)cc(-c2nn[nH]n2)c1)c1cc(Cl)cc(C2CC2)c1
107 µM (≈ 49.7 µg/mL) | O=C(Nc1cc(Cl)cc(C(=O)Nc2cccc(-n3nn[nH]c3=O)c2)c1)OCc1ccccc1

The next lines start with the molecule.

SMILES | solubility kinetic
CC(C)NC(=O)[C@H](Nc1ccc2c(c1)CNC2)c1cc(Cl)cc2[nH]ncc12 | 311 µM (≈ 119 µg/mL)
Cn1ncc2c(C(=O)Nc3ccc4c(c3)CNC4)cc(Br)cc21 | 392 µM (≈ 146 µg/mL)
CCCC[C@@H](NC(=O)OC(C)(C)C)C(=O)N[C@@H](C(=O)NCc1ccc(CN)cc1)c1ccc(OCc2ccccc2)cc1 | 143 µM (≈ 84.2 µg/mL)
O=C(Nc1ccc2c(c1)CNC2)c1cc(Cl)cc2cn[nH]c12 | 184 µM (≈ 57.5 µg/mL)
O=C(Nc1cc2c(c(-c3c[nH]c(=O)c(F)c3)c1)CNC2)c1cc(F)cc2[nH]ncc12 | 66 µM (≈ 26.9 µg/mL)
N#C[C@H](Nc1ccc2c(c1)CNC2)c1cc(Cl)cc2[nH]ncc12 | 297 µM (≈ 96.2 µg/mL)
Cc1c(C(=O)Nc2cc(-c3cccnc3)ccn2)cc(C2CC2)n1C | 176 µM (≈ 58.5 µg/mL)
O=C(O)c1cc(Cl)ccc1NS(=O)(=O)c1ccc(-c2ccccc2Cl)cc1 | 397 µM (≈ 168 µg/mL)
COc1cc(Cc2c(-c3ccc(F)cc3)noc2C)nc(N2CCNCC2)n1 | 325 µM (≈ 125 µg/mL)
CNC(=O)[C@H](Nc1cccc(-c2nn[nH]n2)c1)c1cc(Cl)cc2[nH]ncc12 | 347 µM (≈ 133 µg/mL)
CCOc1cccc(-c2ccc(S(=O)(=O)Nc3ccc(Cl)cc3C(=O)O)cc2)c1 | 392 µM (≈ 169 µg/mL)
N#Cc1cc2c(cc1NC(=O)c1cc(F)cc3[nH]ncc13)CNC2 | 191 µM (≈ 61.4 µg/mL)
C=CC[C@H]1NCc2cc(NC(=O)c3cc(F)cc4[nH]ncc34)ccc21 | 356 µM (≈ 120 µg/mL)
c1ccc2sc(C3CCN(Cc4c[nH]c5ccccc45)CC3)nc2c1 | 119 µM (≈ 41.4 µg/mL)
CNC(=O)c1cc(Cl)ccc1NS(=O)(=O)c1ccc(Oc2ccccc2Cl)cc1 | 25 µM (≈ 11.3 µg/mL)
CC(C)CNC(=O)c1cc(Cl)c(F)cc1NS(=O)(=O)c1ccc(Oc2ccccc2Cl)cc1 | 4 µM (≈ 2.05 µg/mL)
O=C(Nc1cc2c(cc1C1CC1)CNC2)c1cc(F)cc2[nH]ncc12 | 189 µM (≈ 63.6 µg/mL)
OCC#C[C@H](Nc1ccc2c(c1)CNC2)c1cc(Cl)cc2[nH]ncc12 | 135 µM (≈ 47.6 µg/mL)
O=C(Nc1ccc2c(c1)CNC2)c1cc(F)cc2c1CCC2 | 187 µM (≈ 55.4 µg/mL)
O=C(NCC(F)(F)F)c1cc(Cl)c(F)cc1NS(=O)(=O)c1ccc(Oc2ccccc2Cl)cc1 | 14 µM (≈ 7.52 µg/mL)
O=C(O)c1cc(Cl)c(F)cc1S(=O)(=O)Nc1ccc(Oc2ccccc2Cl)cc1 | 396 µM (≈ 181 µg/mL)
COc1cc(-c2cc(NC(=O)c3cc(F)cc4[nH]ncc34)cc3c2CNC3)ccn1 | 180 µM (≈ 72.6 µg/mL)
O=C1Cc2cc(C(=O)Nc3ccc4c(c3)CNC4)ccc2N1 | 136 µM (≈ 39.9 µg/mL)
CNC(=O)c1cc(Cl)c(F)cc1NS(=O)(=O)c1ccc(Oc2ccccc2Cl)cc1 | 49 µM (≈ 23 µg/mL)
N#C[C@H](Nc1cccc(C(=O)O)c1)c1cc(Cl)cc2[nH]ncc12 | 112 µM (≈ 36.6 µg/mL)
O=C(Nc1cc2c(cc1Br)CNC2)c1cc(F)cc2[nH]ncc12 | 47 µM (≈ 17.6 µg/mL)
O=C(O)c1cc(Cl)ccc1NS(=O)(=O)c1ccc(Oc2ccccc2Cl)cc1 | 369 µM (≈ 162 µg/mL)
O=C(O)c1cc(Cl)ccc1S(=O)(=O)NC1CCN(c2nc(C3CC3)cc(C(F)(F)F)n2)CC1 | 380 µM (≈ 192 µg/mL)

Same assay, conditions: buffer

Solubility (mean) | SMILES
134 µM (≈ 61.6 µg/mL) | CC(C)NC(=O)[C@H](Nc1ccc2c(c1)CNC2)c1cc(Cl)cc2[nH]c(-c3ccccc3)nc12
184 µM (≈ 59.3 µg/mL) | O=C(Nc1ccc2c(c1)CNC2)c1cc(F)cc(-c2cn[nH]c2)c1
193 µM (≈ 62 µg/mL) | N#Cc1cc2c(cc1NC(=O)c1cc(F)cc3[nH]ncc13)CNC2
